Assay results as given in patent US10813981B2, “Saposin B binds the lipofuscin bisretinoid A2E and prevents its enzymatic and photo degradation” (Syracuse University, priority 2017, dated 2020).
Where a chain is given by its changes, count along the chain named.

Legend:
[1] = target: T1, pre-formed [SapB-Ligand]complex (Homo sapiens, UniProt P07602); test: Competition / order of addition fluorescence binding with pre-formed SapB complexes; details: A2E fluorescence at 602 nm, excitation 444 nm, pH 5.5
T1 construct: is a product of the post-translational cleavage of prosaposin, along with SapA, SapC, and SapD; made in house; host or cells: E. coli
T1 sequence (P07602 195-273 limits assumed): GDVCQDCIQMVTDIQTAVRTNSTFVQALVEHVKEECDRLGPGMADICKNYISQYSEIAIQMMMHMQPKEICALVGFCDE
Experimental: We have reported in an earlier study the binding properties of SapB to CoQ10 (a bone fide substrate). To determine whether it binds to the same binding site on the protein or displaces A2E from SapB, a series of fluorescence titration experiments in the presence and absence of CoQ10 were performed.
An 800 μL, 20 μM SapB to 10 μM CoQ10 complex was made in pH 5.5 50 mM phosphate buffer. The complex was formed at room temperature in a 1 mL glass vial with gentle stirring for 10 minutes. The entire solution was then transferred to a clear fluorescence cuvette. Fluorescence experiments were performed under emission conditions on a Cary Eclipse Fluorescence Spectrophotometer, with an excitation wavelength of 444 nm, emission wavelength range of 500-800 nm, excitation slit width set to 10 nm, and emission slit width set to 10 nm. […] Analysis of A2E binding the SapB-CoQ10 complex was performed by tracking fluorescence intensity at A2E's peak emission wavelength of 602 nm and plotting it against the concentration of A2E added per each injection.
A SapB-ATO complex was formed by adding 20 μL of the experimental stock to 1 mL of the SapB experimental stock for a final volume of 1020 μL in a 1.5 mL Eppendorf tube. […] The entire 1020 μL was then transferred to a clear fluorescence cuvette. […]

SapB [2] = target: T2, SapB (Homo sapiens, UniProt P07602); test: Fluorescence quenching titration of SapB with ligand (double logarithmic Stern-Volmer analysis); assay type: binding; details: 40 μM SapB, 50 mM phosphate buffer pH 5.5, average of three runs; for Kd: read-out: LogKA of binding by SapB (converted)
T2 construct: made in house; host or cells: E. coli
T2 sequence (P07602 195-273 limits assumed): T1 sequence (P07602 195-273 limits assumed)
Experimental: A2E and SapB were prepared and purified according to literature reports. To determine the A2E/protein binding stoichiometry, a fluorescence titration was carried out by incrementally adding small amounts of A2E to a solution of SapB (FIG. 2). […] A double logarithmic plot of
Fluorescence quenching measurements were performed on a Varian Cary Eclipse fluorimeter equipped with a QNW Peltier temperature controller. The experiments were conducted at 25.00±0.01° C. in 50 mM phosphate buffer, pH 5.50 or 7.40 using 278 nm excitation wavelength for sapB emission spectra at 325 nm (FIG. 2) or 444 nm excitation for A2E emission at 602 nm (FIG. 3) with excitation and emission monochromators bandwidth of 5 nm each. The fluorescence quenching data were analyzed using OriginLab software version 8.
The interaction of SapB (prepared as described above) with a variety of ligands was followed by monitoring the quenching of the fluorescence intensities of the protein's tyrosine residues upon binding (FIG. 12 Panels a-f).
For each ligand tested 40 μM SapB in 50 mM phosphate buffer at pH 5.5 was titrated with ligand and quenching was monitored at the fluorescence maxima at 330 nm. […] All of the fluorescence data were analyzed by a double logarithmic Stern-Volmer plot, shown for all ligands, using the emission maxima to determine binding affinity, presented in Table 3, and using the following equation
Materials and Methods—Saposin B (SapB) was prepared and purified as described above. Briefly, SapB solutions in this study were prepared in 50 mM phosphate buffer, pH 5.5. […] Ligand solutions were prepared in 100% dimethylformamide (DMF) to a concentration of 2 mM, with the exception of hydoxychloroquine (HCQ), which was prepared in 50 mM phosphate buffer, pH 5.5. […] 4.2. Fluorescence Spectroscopy. Fluorescence quenching measurements were performed on a Varian Cary Eclipse fluorimeter equipped with a QNW Peltier temperature controller. The binding experiments were conducted at 25.00±0.01° C. in 50 mM phosphate buffer, pH 5.5, using 278 nm excitation wavelength for SapB emission spectra at 330 nm (FIG. 1a-f) with excitation and emission monochromators bandwidth of 5 nm each. Temperature sensitive binding experiments were performed between 20.00±0.01 and 40.00±0.01° C. using 278 nm excitation wavelength for SapB emission spectra at 331 nm, with excitation and emission monochromators bandwidth of 5 nm each. The fluorescence quenching data were analyzed using OriginLab software version 8.

SapB mutant E69A = target: T3, SapB mutant E69A (Homo sapiens, UniProt P07602, E263A); test: Fluorescence binding assay (Stern-Volmer and temperature dependent), E69A with ATO; details: 25° C.; read-out: KA at 25° C., E69A-ATO
T3 construct: is a product of the post-translational cleavage of prosaposin, along with SapA, SapC, and SapD
T3 sequence (P07602 195-273 E263A): T1 sequence (P07602 195-273 limits assumed) with E69A
Experimental: The deviation observed for [SapB-ATO]complex from the trend warranted further investigation. In order to examine this deviation, a previously described SapB mutant […] (denoted as […] from here on) was used. Fluorescence studies were performed with […] and ATO as described herein for wild type SapB. […] Isothermal titration calorimetry has shown that [SapB-ATO]complex formation has a larger enthalpic contribution than [SapB-CQ]complex and [SapB-CoQ10]complex. Thus, the shift in binding affinity between [SapB-ATO]complex and [[…]-ATO]complex binding may be due to a shift in the thermodynamics of binding. In order to test this, temperature dependent fluorescence studies were performed with […] and ATO, as well as with SapB and ATO. Fluorescence titration experiments were carried out at five different temperatures for each of the […]-ATO and SapB-ATO experiments (FIG. 14). At each temperature, protein was prepared in phosphate buffer solution and ATO was then added via titration. The quenching of SapB or […] fluorescence was monitored at 330 nm and the KA was calculated via double logarithmic Stern-Volmer analysis. […] Fluorescence Spectroscopy. Fluorescence quenching measurements were performed on a Varian Cary Eclipse fluorimeter equipped with a QNW Peltier temperature controller. […] The fluorescence quenching data were analyzed using OriginLab software version 8.

SapB [3] = target: T2, SapB; test: Temperature dependent fluorescence binding assay, SapB with ATO; details: 25° C.; read-out: KA at 25° C., SapB-ATO
Experimental: Isothermal titration calorimetry has shown that [SapB-ATO]complex formation has a larger enthalpic contribution than [SapB-CQ]complex and [SapB-CoQ10]complex. Thus, the shift in binding affinity between [SapB-ATO]complex and [[…]-ATO]complex binding may be due to a shift in the thermodynamics of binding. In order to test this, temperature dependent fluorescence studies were performed with […] and ATO, as well as with SapB and ATO. Fluorescence titration experiments were carried out at five different temperatures for each of the […]-ATO and SapB-ATO experiments (FIG. 14). At each temperature, protein was prepared in phosphate buffer solution and ATO was then added via titration. The quenching of SapB or […] fluorescence was monitored at 330 nm and the KA was calculated via double logarithmic Stern-Volmer analysis. The best-fit plot of InKeq vs. 1/T, where was used to calculate the standard enthalpy, entropy, and Gibb's Free energy of binding for the formation of [[…]-ATO]complex and Materials and Methods-Saposin B (SapB) was prepared and purified as described above. […] Fluorescence Spectroscopy. Fluorescence quenching measurements were performed on a Varian Cary Eclipse fluorimeter equipped with a QNW Peltier temperature controller. […] The fluorescence quenching data were analyzed using OriginLab software version 8.

Row | Molecule | Kd (SapB [2]) | LogKA of binding by SapB (SapB [2]) | also measured
1 | COC1=C(OC)C(=O)C(C/C=C(\C)CC/C=C(\C)CC/C=C(\C)CC/C=C(\C)CC/C=C(\C)CC/C=C(\C)CC/C=C(\C)CC/C=C(\C)CC/C=C(\C)CCC=C(C)C)=C(C)C1=O [Coenzyme Q10, coenzyme Q10] | 0.0631 µM | – | A2E binding on titration into SapB pre-complexed with the ligand [1]: identical fluorescence titration pattern
2 | CCN(CCO)CCCC(C)Nc1ccnc2cc(Cl)ccc12 (stereo not drawn) [Hydoxychloroquine, hydroxychloroquine] | 155 µM | – | –
3 | COC1=C(OC)C(=O)C(C/C=C(\C)CC/C=C(\C)CC/C=C(\C)CCC=C(C)C)=C(C)C1=O [Coenzyme Q4] | – | 5.103 | –
4 | phosphatidylethanolamine | – | 5.227 | –
5 | phosphatidyl-choline [Phosphatidylcholine] | – | 6.075 | –
6 | O=C1C(O)=C([C@H]2CC[C@H](c3ccc(Cl)cc3)CC2)C(=O)c2ccccc21 [Atovaquone, atovaquone] | 0.0288 µM | – | Kd (SapB mutant E69A): 58.5 µM; Kd (SapB [3]): 0.112 µM
7 | COC1=C(OC)C(=O)C(C/C=C(\C)CC/C=C(\C)CC/C=C(\C)CC/C=C(\C)CC/C=C(\C)CC/C=C(\C)CC/C=C(\C)CC/C=C(\C)CCC=C(C)C)=C(C)C1=O [Coenzyme Q9] | – | 6.196 | –
8 | CCN(CC)CCCC(C)Nc1ccnc2cc(Cl)ccc12 (stereo not drawn) [Chloroquine, chloroquine] | 70.1 µM | – | –
9 | CC1=C(/C=C/C(C)=C/C=C/C(C)=C/C=C/C=C(C)/C=C/C=C(\C)C=O)C(C)(C)CCC1 [Apocarotenal, apo-carotenal] | – | 4.618 | –
